Columns and labels:
[1] = target: T1, hERG potassium ion channel (Homo sapiens, UniProt Q12809); assay: hERG test (whole cell model); assay type: cell-based; settings: for Ratio (%): n=3
T1 construct: host or cells: HEK-293
Protocol: The whole cell model hERG test was performed with compound 77 of the present invention as a representative example, 30 uM Quinidine (Sigma) was used as a positive control.
Procedure: hERG potassium ion channel HEK-293 cells (Krius Biology) were over-expressed, and cultured at a 37° C., 5% CO2 incubator. The culture medium was DMEM supplemented with 15% fetal bovine serum and 1% penicillin-streptomycin. The stably transfected cells were inoculated to slides, with a cell density of less than 50%, and cultured overnight. The experimental cells were transferred to an approximately 1 mL bath tank embedded in an inverted microscope platform (Diaphot, Nikon), and the extracellular fluid was perfused at a perfusion rate of 2.7 mL/min. The experiment could be started after stabilization for 5 minutes and precipitation of cells. Membrane current was recorded by HEKAEPC-10 patch clamp amplifier and […] acquisition system (HEKA Instruments Inc., D-67466 Lambrecht/Pfalz Germany). All experiments were completed at room temperature (22-24° C.). During the experiment, a P-97 microelectrode control apparatus (Sutter Instrument Company, One Digital Drive, Novato, Calif. 94949) was used to […] the electrodes (BF150-110-10). The inner diameter of the electrode was 1-1.5 mm, and the inlet resistance after filling with the liquid was 2-4 MQ. Electrophysiological stimulation of the hERG potassium channel: firstly, the membrane voltage was clamped at −80 mV, and cells were given continuous stimulation of 2 s, +20 mV voltage, to activate hERG potassium ion channel and repolarization to −50 mV for 5 s, to generate outward tail current. The stimulation frequency was once every 15 seconds. The current value was the peak value of tail current. By measuring the maximum current value of the treatment group and the control group, the ratio of the maximum current value of the treatment group to the maximum current value of the control group (Mean±SE) was calculated, to evaluate the effect of the test compounds on the hERG potassium ion channel under the test concentration. Statistics and analysis of experimental data were performed by Origin 8.5 (OriginLab Corporation, Northampton, Mass.).

[2] = Stability in rat hepatocytes; assay type: in vitro ADME
Protocol: The stability experiment on rat hepatocytes was performed using compound 77 of the present invention as a representative example.
Procedure: The rat hepatocyte William's Medium E mixed reaction solution (2*10^6 cells/mL, 25 BD Gentest) was placed in a carbon dioxide incubator, and a certain volume of test substance or reference substance was added to the reaction system to initiate the reaction. In the final reaction system, the concentrations of the test substance or positive control testosterone were both 1 uM. Samples were taken at 0, 5, 15, 30, 45, 60, and 120 min after the reaction to a new centrifuge tube (3 portions in parallel at each time point), and 3-fold volume of ice methanol solution containing internal standard was added immediately to terminate the reactions, then after centrifugation for 5 min at 15,000 rpm to precipitate the protein, 100 μL of the supernatant was fetched to an autosampler vial for LC-MS/MS analysis (Waters Corp. ACQUITY UPLC, USA Applied Biosystems Inc. mass spectrometer API 400). The ratio of mean peak area of compound 77 to the mean peak area of internal standard at each time point was calculated, and the percentage of this ratio to that at time point 0 was calculated, and then change in this percentage was used to indicate the metabolic stability of the compound 77. […]

CYP2C9 = target: T2, CYP2C9 (Homo sapiens, UniProt P11712); assay: P450 enzyme inhibition, CYP2C9; assay type: in vitro ADME; settings: human liver microsomes
T2 construct: human liver microsomes (BD Gentest) (0.5 mg/mL); tissue BD Gentest; host or cells: human liver microsomes
T2 sequence (P11712 whole entry): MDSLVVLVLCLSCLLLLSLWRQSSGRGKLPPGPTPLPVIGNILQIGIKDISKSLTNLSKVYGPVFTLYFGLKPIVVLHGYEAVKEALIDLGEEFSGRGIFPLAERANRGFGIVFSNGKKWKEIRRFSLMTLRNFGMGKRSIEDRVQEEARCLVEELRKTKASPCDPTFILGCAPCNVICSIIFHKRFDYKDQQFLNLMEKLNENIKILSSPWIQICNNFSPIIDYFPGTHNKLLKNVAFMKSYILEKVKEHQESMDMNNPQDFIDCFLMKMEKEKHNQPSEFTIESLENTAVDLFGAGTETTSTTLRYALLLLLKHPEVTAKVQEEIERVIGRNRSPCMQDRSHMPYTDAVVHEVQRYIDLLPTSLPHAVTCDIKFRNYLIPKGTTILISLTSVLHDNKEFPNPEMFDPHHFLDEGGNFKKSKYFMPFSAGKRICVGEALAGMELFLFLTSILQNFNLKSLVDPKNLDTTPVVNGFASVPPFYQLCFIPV
Protocol: Eight cytochrome p450 enzyme inhibition reactions of human liver microsomes were performed using compound 77 of the present invention as a representative example.
The main reaction systems and processes: in 37° C. water bath, the test compounds (7 concentrations, 0, 0.25, 0.5, 5, 10, 25, and 50 uM; the final methanol concentration was 1% in the system), human liver microsomes (BD Gentest) (0.5 mg/mL) and reducing coenzyme II (Roche 10621706001) (1 mg/mL) and the corresponding cytochrome p450 enzyme probe substrate were co-incubated for 5 to 20 minutes. Among them, (1) the probe substrate for CYP1A2 was Phenacetin ([…]) (Sigma), and the selective inhibitor alpha-naphthoflavone (2 uM) (Sigma) was for parallel detection as positive control, and they were incubated for 20 minutes. (2) The probe substrate for CYP2b6 was Bupropion (40 uM) (Sigma) and the selective inhibitor Ticlopidine (10 uM) (Sigma) was for parallel detection as positive control, and they were incubated for 20 minutes. (3) The probe substrate of CYP2C8 was Amodiaquine (1 uM) (Sigma), and the selective inhibitor Montelukast (10 uM) (Sigma) was for parallel detection as positive control, and they were incubated for 20 minutes. (4) The probe substrate for CYP2C9 was Diclofenac (2.5 uM) (Sigma), and the selective inhibitor Sulphaphenazole (10 uM) (Sigma) was for parallel detection as positive control, and they were incubated for 20 minutes. (5) The probe substrate for CYP2C19 was Mephenytoin (40 uM) (Sigma), and the selective inhibitor Ticlopidine (10 uM) (Sigma) was for parallel detection as positive control, and they were incubated for 20 minutes. (6) The probe substrate for CYP2D6 was Dextromethorphan (5 uM) (Sigma), and the selective inhibitor Quinidine (10 uM) (Sigma) was for parallel detection as positive control, and they were incubated for 20 minutes. (7) The probe substrates for CYP3A4-T and CYP3A4-M were Testosterone (5 uM) (Sigma) and Midazolam (5 uM) (Sigma), respectively, and the selective inhibitor was Ketoconazole (1 uM) (Sigma), they were detected in parallel as positive control, and incubated for 5 minutes. The reaction system was quenched by adding methanol containing the corresponding internal standard. The internal standard compound was Tolbutamide (Sigma). The concentration of the corresponding metabolites was determined by LC/MS/MS. For the data analysis, the decrease in peak area of the metabolite of the sample after addition of compound 77 relative to the peak area of the metabolite of the solvent control sample was used to calculate the IC50 (concentration of the test substance at 50% inhibition). The percentages of peak areas of metabolites of CYP1A2, CYP2B6, CYP2C8, CYP2C9, 15CYP2C19, CYP2D6, CYP3A4-T, and CYP3A4-M probe substrates after addition of different concentrations of compound 77 and selective inhibitors relative to the solvent control peak areas were shown in the Table 7.

T1 sequence (Q12809 whole entry): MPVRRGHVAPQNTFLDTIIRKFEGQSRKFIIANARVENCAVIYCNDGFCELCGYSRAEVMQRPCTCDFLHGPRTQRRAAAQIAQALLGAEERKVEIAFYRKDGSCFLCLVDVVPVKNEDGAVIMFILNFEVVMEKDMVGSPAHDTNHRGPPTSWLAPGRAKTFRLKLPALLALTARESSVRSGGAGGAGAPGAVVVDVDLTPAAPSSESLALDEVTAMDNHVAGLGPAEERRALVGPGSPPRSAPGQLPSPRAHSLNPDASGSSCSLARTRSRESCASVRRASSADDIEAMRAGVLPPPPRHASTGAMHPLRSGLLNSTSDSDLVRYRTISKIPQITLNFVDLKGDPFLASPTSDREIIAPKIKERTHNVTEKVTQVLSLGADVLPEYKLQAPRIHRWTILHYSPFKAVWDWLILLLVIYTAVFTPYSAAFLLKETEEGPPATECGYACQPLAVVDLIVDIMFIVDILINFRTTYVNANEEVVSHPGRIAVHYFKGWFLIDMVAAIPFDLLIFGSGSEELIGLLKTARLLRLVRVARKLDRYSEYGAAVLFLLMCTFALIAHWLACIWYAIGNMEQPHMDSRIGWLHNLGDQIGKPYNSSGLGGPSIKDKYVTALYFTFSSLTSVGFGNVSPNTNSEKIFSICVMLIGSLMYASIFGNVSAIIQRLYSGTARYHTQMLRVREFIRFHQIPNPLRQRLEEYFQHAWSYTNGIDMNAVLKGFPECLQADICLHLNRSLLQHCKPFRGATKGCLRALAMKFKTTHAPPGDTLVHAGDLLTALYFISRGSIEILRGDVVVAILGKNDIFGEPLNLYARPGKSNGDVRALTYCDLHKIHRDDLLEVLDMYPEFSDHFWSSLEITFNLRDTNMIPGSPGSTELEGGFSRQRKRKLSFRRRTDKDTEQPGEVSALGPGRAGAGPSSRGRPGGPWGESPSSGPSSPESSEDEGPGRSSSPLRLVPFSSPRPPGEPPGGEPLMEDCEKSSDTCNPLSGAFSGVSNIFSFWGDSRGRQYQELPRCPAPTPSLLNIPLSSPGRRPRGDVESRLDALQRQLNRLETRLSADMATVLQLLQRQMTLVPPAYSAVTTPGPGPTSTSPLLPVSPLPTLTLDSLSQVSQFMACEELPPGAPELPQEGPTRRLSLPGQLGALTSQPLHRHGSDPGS

SMILES: COCCOc1ccc2c(c1)ncn2-c1ccc(NC(=O)Nc2cc(C(C)(C)C)n[nH]2)cc1 [Compound 77, 1-(5-tert-butyl-2H-pyrazol-3-yl)-3-{4-[5-(2-methoxyl-ethoxyl)-benzimidazol-1-yl]-phenyl}-urea]
- Ratio (%) ([1]; Concentration 0.3 uM): 94.96%
- Ratio (%) ([1]; Concentration 1 uM): 86.71%
- Ratio (%) ([1]; Concentration 3 uM): 75.85%
- Ratio (%) ([1]; Concentration 10 uM): 53.71%
- Ratio (%) ([1]; Concentration 30 uM): 37.47%
- blocking effect on the hERG potassium ion channel ([1]; within the range of test concentrations): a certain blocking effect
- half-life at 1 uM [2]: > 2 h
- CYP2C9 Remaining % (CYP2C9; Concentration 0.25 uM): 99.6%
- CYP2C9 Remaining % (CYP2C9; Concentration 0.5 uM): 104.5%
- CYP2C9 Remaining % (CYP2C9; Concentration 5 uM): 99.0%
- CYP2C9 Remaining % (CYP2C9; Concentration 10 uM): 90.9%
- CYP2C9 Remaining % (CYP2C9; Concentration 25 uM): 72.5%
- CYP2C9 Remaining % (CYP2C9; Concentration 50 uM): 39.9%
- IC50 (CYP2C9; read-out: half-inhibitory concentration (IC50) of CYP2C9): 41.6 µM

From patent publication US10647680B2, “Urea compound, preparation method therefor and medical use thereof” (Ancureall Pharmaceutical (Shanghai) Co., Ltd., priority 2016, dated 2020)
